What was measured:
ULK1 = target: T1, ULK1 (Homo sapiens, UniProt O75385); assay: Inhibition of ULK1 protein activity (phosphorylation function), ADP-Glo method; type: biochemical
T1 construct: purchased Promega V3521
T1 sequence (O75385 1-1050): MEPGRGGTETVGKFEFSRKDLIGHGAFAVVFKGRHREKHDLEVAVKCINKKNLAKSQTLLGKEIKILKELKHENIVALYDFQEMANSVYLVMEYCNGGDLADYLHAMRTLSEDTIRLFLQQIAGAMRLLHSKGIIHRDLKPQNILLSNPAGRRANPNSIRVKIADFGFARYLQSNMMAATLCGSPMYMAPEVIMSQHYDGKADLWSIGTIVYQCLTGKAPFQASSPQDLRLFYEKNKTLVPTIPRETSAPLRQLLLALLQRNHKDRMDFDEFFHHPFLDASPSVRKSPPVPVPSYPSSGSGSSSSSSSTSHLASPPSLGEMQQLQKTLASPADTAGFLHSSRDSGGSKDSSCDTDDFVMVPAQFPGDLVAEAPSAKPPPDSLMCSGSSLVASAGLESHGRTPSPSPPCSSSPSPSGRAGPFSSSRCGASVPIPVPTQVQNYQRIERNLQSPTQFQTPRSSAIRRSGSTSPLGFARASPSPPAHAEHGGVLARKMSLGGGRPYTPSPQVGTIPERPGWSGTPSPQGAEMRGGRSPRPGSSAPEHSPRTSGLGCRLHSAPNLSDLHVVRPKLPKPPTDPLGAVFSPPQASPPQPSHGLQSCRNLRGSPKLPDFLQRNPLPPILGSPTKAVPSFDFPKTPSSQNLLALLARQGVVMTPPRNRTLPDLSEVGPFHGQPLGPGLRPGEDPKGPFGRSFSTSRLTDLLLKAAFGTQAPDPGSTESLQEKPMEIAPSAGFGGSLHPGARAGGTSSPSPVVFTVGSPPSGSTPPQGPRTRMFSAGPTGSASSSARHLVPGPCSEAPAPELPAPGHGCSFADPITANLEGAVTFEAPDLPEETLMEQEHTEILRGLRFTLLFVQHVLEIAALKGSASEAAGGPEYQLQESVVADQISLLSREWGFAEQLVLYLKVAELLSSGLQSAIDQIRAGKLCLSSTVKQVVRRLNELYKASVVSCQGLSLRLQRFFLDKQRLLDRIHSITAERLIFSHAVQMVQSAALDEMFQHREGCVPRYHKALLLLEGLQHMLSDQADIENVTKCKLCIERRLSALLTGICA
Method: In this experiment, the inhibitory effect of a compound on the phosphorylation function of ULK1 was detected by ADP-Glo method. The inhibitory effect of the compound of the present disclosure on the ULK1 target was evaluated based on IC50.
Compound formulation: Using an ECHO (Beckman, ECHO650), the compound was serially diluted 3-fold in DMSO in a 384-well plate (PE, 6007290). A total of 10 concentration points were set, with the maximum concentration of the compound being 10 µM, and 50 nL per well. Positive control wells and negative control wells were added with 50 nL DMSO, respectively.
Reaction process: A 32 nM of ULK1 (Promega, V3521) solution was formulated, and 2.5 µL/well was transferred to the compound test wells and the negative control wells (NC). 2.5 µL/well of 1× Assay buffer was added to the positive control wells (PC). A mixed solution of 100 µM of ATP and 1.86 µM of MBP was formulated, and 2.5 µL/well was transferred to the reaction plate. After centrifugation, the reaction was initiated and incubated at room temperature for 60 min. After the reaction was completed, 5 µL/well of ADP-Glo Reagent (Promega, V9102) was added to the reaction plate. After centrifugation, the reaction was incubated at room temperature for 40 minutes. Finally, 10 µL/well of Kinase Detection Buffer was added, followed by centrifugation and incubation at room temperature for 30 min. The chemiluminescence value was read using Envision (PE, Envision2105).
Assay buffer: a reaction buffer; and Kinase Detection buffer: a detection buffer, both were taken from the ADP-Glodetection kit, purchased from Promega, model V9102.
The inhibition ratio of a compound on ULK1 activity was calculated using the following formula: [formula]
The dose-effect curve was fitted using the log(inhibitor) vs. response -Variable slope of the analysis software GraphPad Prism 8, thereby affording the IC50 value of each compound for enzyme activity.

[1] = test system: ATG13 phosphorylation level in MIA PaCa-2 cells; assay: Inhibition of ATG13 phosphorylation level in MIA PaCa-2 cells (Phospho-Atg13 (ser355) ELISA); type: cell-based; settings: Homo sapiens, Torin1 100 nM, 24 h incubation, 8 concentrations, highest 10 µM, read-out: pATG13 ELISA IC50
Method: The inhibitory effect of the compound of the present disclosure on ULK1 was evaluated by testing the inhibitory effect of the compound of the present disclosure on ATG13 phosphorylation level in MIA PaCa-2 cells.
MIA PaCa-2 cells (ATCC, CRM-CRL-1420) were cultured in a complete medium, namely, a DMEM medium (Gibco, 11965-092) containing 10% fetal bovine serum (Corning, 35-081-CV), 2.5% horse serum (Gibco, 16050-122) and 1% double antibody (Gibco, 15140-122). The experiments were performed according to the requirements of the kit (Cell Signaling Technology, 17208C).
Cell plating: MIA PaCa-2 at 80% growth confluence were digested, diluted with the complete medium, and added to a 96-well cell culture plate (Costar, 3596) at 20,000 cells per well, with a volume of 90 µL.
Compound incubation: 5 µL of Torin1 and 5 µL of a serially diluted compound were added to each well so that the highest concentration of the compound in the reaction system was 10 µM. 5-fold serial dilution with 8 concentrations was performed, and the final concentration of Torin1 was 100 nM. The DMSO content in the system was 0.1%. The reaction plate was placed in an incubator at 37°C in 5% CO2, and was incubated for 24 h. 10 µL of Torin1 was added to the negative control wells (NC) to a final concentration of 100 nM, with a DMSO content of 0.1%.
Reaction detection: After the incubation was completed, the cell plate was washed with a pre-cooled DPBS (Corning, 21-031-CVC) to wash away the compound and medium. 50 µL of pre-cooled cell lysis solution was added to each well, incubated on ice for 10 min. The cell plate was centrifuged, and the supernatant was transfered to an ELISA reaction plate. Simultaneously, 50 µL of Phospho-Atg13 (ser355) rabbit detection antibody was added, followed by incubation at room temperature under shaking for 60 min. After the incubation was completed, the reaction plate was washed with a washing solution for 4 times. 100 µL of TMB substrate was added for color development reaction, followed by incubation under shaded conditions with shaking for 15 min. Finally, 100 µL of stop solution was added to each well. The reaction was terminated by shaking for 10 s, and the absorbance value at 450 nm and 560 nm were collected within 10 min using Envision (Perkin Elmer, EnVision 2105).
The inhibition ratio was calculated by subtracting the absorbance value at […] from the absorbance value at 450 nm for each well. The inhibition ratio formula is as follows: [formula]
The dose-effect curve was fitted using the log (inhibitor) vs. response -Variable slope of Graphpad Prism8, thereby affording the IC50 value of each compound for inhibiting ATG13 phosphorylation level.

Row | SMILES | IC50 (ULK1) [nM] | IC50 [1] [nM]
1 | CN1CCN2c3ccc(Nc4ncc(C(F)(F)F)c(N5CCN(C)C(=O)C5)n4)cc3COCC2C1 (stereo not shown) [Compound 1] | 100 to 1000 | > 1000
2 | CN1CCN2c3ccc(Nc4ncc(C(F)(F)F)c(N5CCC6(CCN(C)C6)CC5)n4)cc3COCC2C1 (stereo not shown) [Compound 2] | < 100 | > 1000
3 | CN1CCN2c3ccc(Nc4ncc(C(F)(F)F)c(OCCCN5CCCCC5=O)n4)cc3COCC2C1 (stereo not shown) [Compound 3] | < 100 | 100 to 1000
4 | CN1CCN2c3ccc(Nc4ncc(C(F)(F)F)c(N5CCC(n6cccn6)CC5)n4)cc3COCC2C1 (stereo not shown) [Compound 4] | < 100 | > 1000
5 | CN1CCN2c3ccc(Nc4ncc(C(F)(F)F)c(N5CCC6(CCN(C)C6)C5)n4)cc3COCC2C1 (stereo not shown) [Compound 5] | < 100 | 100 to 1000
6 | CN1CCN2c3ccc(Nc4ncc(C(F)(F)F)c(N[C@H]5CC[C@@H](n6cccn6)CC5)n4)cc3COCC2C1 (stereo partly shown) [Compound 6] | < 100 | 100 to 1000
7 | CN1CCN2c3ccc(Nc4ncc(C(F)(F)F)c(NCCCn5cccn5)n4)cc3COCC2C1 (stereo not shown) [Compound 8] | < 100 | > 1000
8 | CN1CCN2c3ccc(Nc4ncc(C(F)(F)F)c(OCCCc5ccccc5C#N)n4)cc3COCC2C1 (stereo not shown) [Compound 9] | < 100 | 100 to 1000
9 | CN1CCN2c3ccc(Nc4ncc(C(F)(F)F)c(NCCCN5CCCCC5=O)n4)cc3COCC2C1 (stereo not shown) [Compound 11] | < 100 | < 100
10 | CN1CCN2c3ccc(Nc4ncc(C(F)(F)F)c(OCCCN5CCCCC5=O)n4)cc3OCC2C1 (stereo not shown) [Compound 12] | < 100 | 100 to 1000
11 | CN1CCN2c3ccc(Nc4ncc(C(F)(F)F)c(N5CC6(CCN(C)C6)C5)n4)cc3COCC2C1 (stereo not shown) [Compound 20] | < 100 | 100 to 1000
12 | CN1CCN2c3ccc(Nc4ncc(C(F)(F)F)c(NC5CCN(C(=O)C6CCC6)CC5)n4)cc3COCC2C1 (stereo not shown) [Compound 21] | < 100 | > 1000
13 | CN1CCN2c3ccc(Nc4ncc(C(F)(F)F)c(N5CC6(CN(C)C6)C5)n4)cc3COCC2C1 (stereo not shown) [Compound 22] | < 100 | 100 to 1000
14 | CN1CCN2c3ccc(Nc4ncc(C(F)(F)F)c(OCCCn5cccn5)n4)cc3COCC2C1 (stereo not shown) [Compound 23] | < 100 | > 1000

— patent publication EP4778931A1, “ULK1 INHIBITOR, PREPARATION METHOD THEREFOR AND USE THEREOF” (Dovetree Medicines Unus, Inc., priority 2023, dated 2025)
